Experimental data reported in ChEMBL document CHEMBL1134567, “Prediction of the aroma quality and the threshold values of some pyrazines using artificial neural networks” (J Med Chem, 2001).

Test: Evaluated for its olfactory detection threshold value and indicates quantitative measure of odor impression
Format: functional

SMILES | Log 1/C
CCCCCCCCc1nccnc1SCC | 5.1
CCCCCCCCCCc1nccnc1OC | 3.8
CCc1cnc(C)cn1 | 2.45
CCCCCCCCc1nccnc1OCC | 5.07
CCCCCCCCc1nccnc1OC | 6.57
CCCCCCCCCCc1nccnc1OCC | 3.64
CCCCCCCCc1nccnc1SC | 5.53

Test: Evaluated for its olfactory detection threshold value and indicates quantitative measure of odour impression
Format: functional

SMILES | Log 1/C
COc1nc(OC)c(C(C)C)nc1C | 2.89
CCSc1cnc(CCC(C)CC)cn1 (stereo not drawn) | 3.63
CCOc1ncc(CC(C)C)nc1C | 4.08
CCCCCc1nccnc1OCC | 6.38
Cc1nc(CC(C)C)cnc1Oc1ccccc1 | 2.88
CCCc1nccnc1OC | 6.1
CCC(C)CCc1cnc(Oc2ccccc2)c(C)n1 (stereo not drawn) | 3.29
CCCCCCc1nccnc1OC | 6.44
COc1nccnc1C(C)C | 6.8
CC(C)Cc1cnccn1 | 2.53
CCCCCc1nccnc1SCC | 5.32
COc1ncc(C)nc1C(C)C | 6.52
COc1nccnc1CCCC(C)C | 7.51
Cc1nccnc1CC(C)C | 3.06
CCC(C)Cc1nccnc1OC (stereo not drawn) | 7.18
CSc1nccnc1C(C)C | 6.55
C/C=C/CCc1nccnc1OC | 6.1
CCCCc1nccnc1SCC | 4.69
COc1ncc(C)nc1CC(C)C | 4.84

SMILES | Log 1/C
CCOc1ncc(CCC(C)CC)nc1C (stereo not drawn) | 4.87
COc1nc(C)c(OC)nc1C | 2.97
COc1ncc(CC(C)C)nc1C | 6
COc1nccnc1CC(C)C | 7.47
CCCC(C)Cc1cnc(SC)c(C)n1 (stereo not drawn) | 4.27
Cc1ncc(C(C)C)nc1C | 3.88
C=CCCCc1nccnc1OC | 6.77
COc1nc(C(C)C)c(OC)nc1C(C)C | 2.52
Cc1nccnc1C(C)C | 3.93
CCCc1nccnc1SC | 5.23
CCC(C)c1nccnc1OC (stereo not drawn) | 6.62
CCCC(C)Cc1nccnc1OC (stereo not drawn) | 7.38
C/C=C\CCc1nccnc1OC | 5.52
CCCCCc1cnccn1 | 4.48
COc1nccnc1CCC(C)C | 7.46
COc1nc(C)cnc1C(C)C | 6.57
CSc1nccnc1CC(C)C | 5.74
CC(C)c1cnc(Oc2ccccc2)cn1 | 2.79
COc1nc(C)cnc1CC(C)C | 5.84

SMILES | Log 1/C
CCCCc1cnccn1 | 2.53
CCCCCCCc1nccnc1OC | 6.9
CCSc1ncc(CC(C)CC)nc1C (stereo not drawn) | 4.95
CCOc1ncc(CC(C)CC)nc1C (stereo not drawn) | 4.54
CC(C)Cc1cncc(N(C)C)n1 | 1.55
CCC(C)Cc1cnc(OC)c(C)n1 (stereo not drawn) | 7.29
CCc1nccnc1CC | 5.13
CCOc1ncc(C(C)CC)nc1C (stereo not drawn) | 4.21
CCCc1nccnc1C | 3.36
CCCCc1nccnc1OC | 6.52
Cc1nccnc1N(C)C | 2.88
CCCCCc1nccnc1SC | 6.21
CCCCCc1nccnc1OC | 6.95
CSc1ncc(CC(C)C)nc1C | 4.12
COc1nc(C(C)C)c(OC)nc1C | 3.45
CCC(C)CCc1cnc(OC)c(C)n1 (stereo not drawn) | 5.24
CCCCCc1cnc(C)c(C)n1 | 3.3
COc1nc(C)c(C)nc1CC(C)C | 2.79

Test: Olfactory detection threshold value and quantitative measure of odour impression; No threshold value.
Format: functional

SMILES | Log 1/C
CCCCOc1cnccn1 | No threshold value
CNc1nccnc1C | No threshold value
CCc1cnccn1 | No threshold value
CCSc1cnccn1 | No threshold value
Cc1cnc(C)c(C)n1 | No threshold value
COc1nc(CC(C)C)cnc1CC(C)C | No threshold value
CCCCCCC(C)Cc1nccnc1OC (stereo not drawn) | No threshold value
COc1cncc(C)n1 | No threshold value
CCOc1cnccn1 | No threshold value
CCc1nccnc1OC | No threshold value
Cc1nccnc1C | No threshold value
CSc1cnccn1 | No threshold value
CSc1nccnc1C | No threshold value
Cc1cnc(C)cn1 | No threshold value
COc1nccnc1CCCCCCC(C)C | No threshold value
CCCCCCCCc1nccnc1Sc1ccccc1 | No threshold value
COc1cnccn1 | No threshold value
CSc1cncc(C)n1 | No threshold value
COc1nccnc1C | No threshold value
CCOc1nccnc1CC(C)C | No threshold value
CCCC(C)c1nccnc1OC (stereo not drawn) | No threshold value

Test: Evaluated for its olfactory detection threshold value and indicates quantitative measure of odour impression; No threshold value.
Format: functional

SMILES | Log 1/C
CCSc1nccnc1CC | No threshold value
COc1nc(C)cnc1C(C)(C)O | No threshold value
COc1nc(C)cnc1C | No threshold value
CCc1nc(C)cnc1C | No threshold value
Cc1ncc(CC(C)C)nc1C | No threshold value
CCSc1nccnc1C | No threshold value
COc1nc(C)cnc1C(C)=O | No threshold value
COc1ncc(C)nc1C(C)(C)O | No threshold value
CCc1cnc(C)c(C)n1 | No threshold value
CCOc1nccnc1C | No threshold value
COc1nc(C(C)=O)c(OC)nc1C | No threshold value
Cc1nc(C)c(C)nc1C | No threshold value
CCc1ncc(C)nc1C | No threshold value
Cc1cnc(C)c(CCC(C)C)n1 | No threshold value
